Measurements from patent US5478816A, “Liquid vitamin formulations containing vitamin D esters” (Bristol-Myers Squibb Company, priority 1993, dated 1995).
Several values for one entry are separate records, joined by “and”; a condition that tells them apart may be missing. Identical values can stand only once. Like-named read-outs stand apart in the source and are kept apart here.

Assay: Short-term stability of vitamin D3 and vitamin D3 palmitate in liquid vitamin formulations at 40° C. (HPLC assay)
Type: physicochemical
Details: 40° C.; for half-life: liquid vitamin formulation, first order fit of 16 weeks data, read-out: Time in Weeks for 50% Degradation (T50)
Description: In addition to the above, the vitamin formulation contains flavorants, stabilizer of vitamins, and about 1.0% polysorbate 80 as surfactant. As appreciated by the skilled artisan, appropriate overages of vitamins are included in order to assure meeting the label claims. The example composition contains 1.86:1 ratio by weight of glycerine to water. The pH is 5.0 which is adjusted by using an appropriate ratio of ascorbic acid to sodium ascorbate.
Vitamin D was analyzed by a HPLC assay as described by Matthew G. Sliva, et al., "Reversed-Phase Liquid Chromatographic Determination of Vitamin D in Infant Formulas and Enteral Nutritionals," J Assoc. Off. Anal. Chem., 75, 566, 1992, except that saponification conditions of 70° C. for 40 minutes were employed.
Stability of vitamins D3 and D3 palmitate were compared in various vitamin formulations containing different amounts of water and glycerin and at different pHs. The other ingredients and method of pH adjustment were as described in Example 1. The results are in Tables 2-5. Each batch number represents a different liquid vitamin formulation. The amount of glycerin varied between 650 and 850 mg/ml, depending upon the amount of water. "Vit" represents vitamin, "Desc." represents description,"Vit D3" represents vitamin D3, and "Vit D3P" or "D3 P" represents vitamin D3 palmitate. Table 1 lists the half-life (T50) values, i.e., time to degrade to 50% of the starting concentration of vitamins D3 and D3 palmitate at 40° C., These T50 values were calculated by fitting the data to first order degradation rate.

C=C1CC[C@H](O)C/C1=C/C=C1\CCC[C@]2(C)[C@@H]([C@H](C)CCCC(C)C)CC[C@@H]12 [Vitamin D3, vitamin D3]
half-life (pH 3.2, pH 3.2, 252 mg/ml water): 220 days | half-life (pH 3.2, pH 3.2, 390 mg/ml water): 73.5 days | half-life (pH 4.2, pH 4.2, 252 mg/ml water): 105 days | half-life (pH 4.2, pH 4.2, 390 mg/ml water): 44.8 days | half-life (pH 5, pH 5.0, 252 mg/ml water): 117 days | half-life (pH 5, pH 5.0, 320 mg/ml water): 86.8 days | half-life (pH 5, pH 5.0, 390 mg/ml water): 40.6 days | half-life (pH 5, pH 5.0, 435 mg/ml water): 39.9 days | half-life (pH 5.6, pH 5.6, 252 mg/ml water): 146 days | half-life (pH 5.6, pH 5.6, 390 mg/ml water): 44.1 days | Vitamin D content on storage (pH 3.2, 252 mg/ml water, age 0 weeks, Batch #1 (D3), #2 (D3 P)): 787 IU/ml and 789 IU/ml | Vitamin D content on storage (pH 3.2, 252 mg/ml water, age 1 week, Batch #1 (D3), #2 (D3 P)): 714 IU/ml and 724 IU/ml | Vitamin D content on storage (pH 3.2, 252 mg/ml water, age 2 weeks, Batch #1 (D3), #2 (D3 P)): 718 IU/ml and 691 IU/ml | Vitamin D content on storage (pH 3.2, 252 mg/ml water, age 4 weeks, Batch #1 (D3), #2 (D3 P)): 720 IU/ml and 713 IU/ml | Vitamin D content on storage (pH 3.2, 252 mg/ml water, age 6 weeks, Batch #1 (D3), #2 (D3 P)): 656 IU/ml and 628 IU/ml | Vitamin D content on storage (pH 3.2, 252 mg/ml water, age 8 weeks, Batch #1 (D3), #2 (D3 P)): 658 IU/ml and 634 IU/ml | Vitamin D content on storage (pH 3.2, 252 mg/ml water, age 12 weeks, Batch #1 (D3), #2 (D3 P)): 514 IU/ml and 586 IU/ml | Vitamin D content on storage (pH 3.2, 252 mg/ml water, age 16 weeks, Batch #1 (D3), #2 (D3 P)): 559 IU/ml and 542 IU/ml | Vitamin D content on storage (pH 3.2, 390 mg/ml water, age 0 weeks, Batch #3 (D3), #4 (D3 P)): 445 IU/ml and 447 IU/ml | Vitamin D content on storage (pH 3.2, 390 mg/ml water, age 1 week, Batch #3 (D3), #4 (D3 P)): 429 IU/ml | Vitamin D content on storage (pH 3.2, 390 mg/ml water, age 2 weeks, Batch #3 (D3), #4 (D3 P)): 392 IU/ml and 399 IU/ml | Vitamin D content on storage (pH 3.2, 390 mg/ml water, age 4 weeks, Batch #3 (D3), #4 (D3 P)): 359 IU/ml and 369 IU/ml | Vitamin D content on storage (pH 3.2, 390 mg/ml water, age 8 weeks, Batch #3 (D3), #4 (D3 P)): 282 IU/ml and 271 IU/ml | Vitamin D content on storage (pH 3.2, 390 mg/ml water, age 12 weeks, Batch #3 (D3), #4 (D3 P)): 207 IU/ml and 211 IU/ml | Vitamin D content on storage (pH 3.2, 390 mg/ml water, age 16 weeks, Batch #3 (D3), #4 (D3 P)): 160 IU/ml and 149 IU/ml | Vitamin D content on storage (pH 4.2, 252 mg/ml water, age 0 weeks, Batch #5 (D3), #6 (D3 P)): 450 IU/ml | Vitamin D content on storage (pH 4.2, 252 mg/ml water, age 1 week, Batch #5 (D3), #6 (D3 P)): 440 IU/ml and 445 IU/ml | Vitamin D content on storage (pH 4.2, 252 mg/ml water, age 2 weeks, Batch #5 (D3), #6 (D3 P)): 422 IU/ml and 425 IU/ml | Vitamin D content on storage (pH 4.2, 252 mg/ml water, age 4 weeks, Batch #5 (D3), #6 (D3 P)): 364 IU/ml and 371 IU/ml | Vitamin D content on storage (pH 4.2, 252 mg/ml water, age 8 weeks, Batch #5 (D3), #6 (D3 P)): 331 IU/ml and 315 IU/ml | Vitamin D content on storage (pH 4.2, 252 mg/ml water, age 12 weeks, Batch #5 (D3), #6 (D3 P)): 255 IU/ml and 267 IU/ml | Vitamin D content on storage (pH 4.2, 252 mg/ml water, age 16 weeks, Batch #5 (D3), #6 (D3 P)): 198 IU/ml and 224 IU/ml | Vitamin D content on storage (pH 4.2, 390 mg/ml water, age 0 weeks, Batch #7 (D3), #8 (D3 P)): 451 IU/ml and 448 IU/ml | Vitamin D content on storage (pH 4.2, 390 mg/ml water, age 1 week, Batch #7 (D3), #8 (D3 P)): 420 IU/ml and 418 IU/ml | Vitamin D content on storage (pH 4.2, 390 mg/ml water, age 2 weeks, Batch #7 (D3), #8 (D3 P)): 357 IU/ml and 360 IU/ml | Vitamin D content on storage (pH 4.2, 390 mg/ml water, age 4 weeks, Batch #7 (D3), #8 (D3 P)): 301 IU/ml and 299 IU/ml | Vitamin D content on storage (pH 4.2, 390 mg/ml water, age 8 weeks, Batch #7 (D3), #8 (D3 P)): 181 IU/ml and 178 IU/ml | Vitamin D content on storage (pH 4.2, 390 mg/ml water, age 12 weeks, Batch #7 (D3), #8 (D3 P)): 109 IU/ml and 124 IU/ml | Vitamin D content on storage (pH 4.2, 390 mg/ml water, age 16 weeks, Batch #7 (D3), #8 (D3 P)): 91.7 IU/ml and 76.1 IU/ml | Vitamin D content on storage (pH 5.0, 252 mg/ml water, age 0 weeks, Batch #9 (D3), #10 (D3 P)): 840 IU/ml and 851 IU/ml | Vitamin D content on storage (pH 5.0, 252 mg/ml water, age 1 week, Batch #9 (D3), #10 (D3 P)): 791 IU/ml and 793 IU/ml | Vitamin D content on storage (pH 5.0, 252 mg/ml water, age 4 weeks, Batch #9 (D3), #10 (D3 P)): 720 IU/ml and 700 IU/ml | Vitamin D content on storage (pH 5.0, 252 mg/ml water, age 8 weeks, Batch #9 (D3), #10 (D3 P)): 583 IU/ml and 590 IU/ml | Vitamin D content on storage (pH 5.0, 252 mg/ml water, age 12 weeks, Batch #9 (D3), #10 (D3 P)): 478 IU/ml and 482 IU/ml | Vitamin D content on storage (pH 5.0, 252 mg/ml water, age 16 weeks, Batch #9 (D3), #10 (D3 P)): 460 IU/ml and 430 IU/ml | Vitamin D content on storage (pH 5.0, 390 mg/ml water (so in the source), age 0 weeks, Batch #11 (D3), #12 (D3 P)): 454 IU/ml and 449 IU/ml | Vitamin D content on storage (pH 5.0, 390 mg/ml water (so in the source), age 1 week, Batch #11 (D3), #12 (D3 P)): 432 IU/ml and 423 IU/ml | Vitamin D content on storage (pH 5.0, 390 mg/ml water (so in the source), age 2 weeks, Batch #11 (D3), #12 (D3 P)): 424 IU/ml and 426 IU/ml | Vitamin D content on storage (pH 5.0, 390 mg/ml water (so in the source), age 4 weeks, Batch #11 (D3), #12 (D3 P)): 377 IU/ml and 371 IU/ml | Vitamin D content on storage (pH 5.0, 390 mg/ml water (so in the source), age 8 weeks, Batch #11 (D3), #12 (D3 P)): 291 IU/ml and 281 IU/ml | Vitamin D content on storage (pH 5.0, 390 mg/ml water (so in the source), age 12 weeks, Batch #11 (D3), #12 (D3 P)): 230 IU/ml and 237 IU/ml | Vitamin D content on storage (pH 5.0, 390 mg/ml water (so in the source), age 16 weeks, Batch #11 (D3), #12 (D3 P)): 196 IU/ml and 182 IU/ml | Vitamin D content on storage (pH 5.0, 390 mg/ml water, age 0 weeks, Batch #13 (D3), #14 (D3 P)): 453 IU/ml and 452 IU/ml | Vitamin D content on storage (pH 5.0, 390 mg/ml water, age 1 week, Batch #13 (D3), #14 (D3 P)): 413 IU/ml and 410 IU/ml | Vitamin D content on storage (pH 5.0, 390 mg/ml water, age 2 weeks, Batch #13 (D3), #14 (D3 P)): 363 IU/ml and 356 IU/ml | Vitamin D content on storage (pH 5.0, 390 mg/ml water, age 4 weeks, Batch #13 (D3), #14 (D3 P)): 298 IU/ml and 305 IU/ml | Vitamin D content on storage (pH 5.0, 390 mg/ml water, age 8 weeks, Batch #13 (D3), #14 (D3 P)): 166 IU/ml and 168 IU/ml | Vitamin D content on storage (pH 5.0, 435 mg/ml water, age 0 weeks, Batch #15 (D3), #16 (D3 P)): 450 IU/ml and 453 IU/ml | Vitamin D content on storage (pH 5.0, 435 mg/ml water, age 1 week, Batch #15 (D3), #16 (D3 P)): 400 IU/ml and 426 IU/ml | Vitamin D content on storage (pH 5.0, 435 mg/ml water, age 2 weeks, Batch #15 (D3), #16 (D3 P)): 370 IU/ml | Vitamin D content on storage (pH 5.0, 435 mg/ml water, age 4 weeks, Batch #15 (D3), #16 (D3 P)): 285 IU/ml and 291 IU/ml | Vitamin D content on storage (pH 5.0, 435 mg/ml water, age 8 weeks, Batch #15 (D3), #16 (D3 P)): 187 IU/ml
